Assay results as given in patent publication US6559101B2, “N- (5, 7-dimethoxy [1, 2, 4] triazolo [1, 5-a] pyrimidin-2-yl) arylsulfonamide compounds and their use as herbicides” (Dow AgroSciences LLC, priority 2000, dated 2003).

Assays:
Assay type in all cases: in vivo
[1] = system: Rox orange sorghum (Sorghum bicolor); assay: Postemergence herbicidal activity; conditions: scored after 2 weeks, 0 no injury, 100 complete kill
Protocol: (§1) Seeds of the desired test plant species were planted in Grace-Sierra MetroMix® 306 planting mixture, which typically has a pH of 6.0 to 6.8 and an organic matter content of about 30 percent, in plastic pots with a surface area of 64 square centimeters. When required to ensure good germination and healthy plants, a fungicide treatment and/or other chemical or physical treatment was applied. The plants were grown for 7-21 days in a greenhouse with an approximately 15 hr photoperiod which was maintained at about 23-29° C. during the day and 22-28° C. during the night. Nutrients and water were added on a regular basis and supplemental lighting was provided with overhead metal halide 1000 Watt lamps as necessary. The plants were employed for testing when they reached the first or second true leaf stage. A weighed amount of each test compound, determined by the highest rate to be tested, was placed in a 20 mL glass vial and was dissolved in 4 mL of a 97:3 v/v (volume/volume) mixture of acetone and dimethyl sulfoxide to obtain concentrated stock solutions. […] The concentrated stock solutions obtained were diluted with an aqueous mixture containing acetone, water, iso-propyl alcohol, dimethyl sulfoxide, Atplus 411F crop oil concentrate, and Triton X-155 surfactant (methylenebisdiamyl phenoxy polyethoxy ethanol) in a 48.5:39:10:1.5:1.0:0.02 v/v ratio to obtain spray solutions of known concentration. The solutions containing the highest concentration to be tested were prepared by diluting 2 mL aliquots of the stock solution with 13 mL of the mixture and lower concentrations were prepared by dilution of appropriate smaller portions of the stock solution. Approximately 1.5 mL aliquots of each solution of known concentration were sprayed evenly onto each of the test plant pots using a Devilbiss atomizer driven by compressed air pressure of 2 to 4 psi (140 to 280 kiloPascals) to obtain thorough coverage of each plant. Control plants were sprayed in the same manner with the aqueous mixture. In this test an application rate of 1 ppm results in the application of approximately 1 g/ha. The treated plants and control plants were placed in a greenhouse as described above and watered by sub-irrigation to prevent wash-off of the test compounds. After 2 weeks the condition of the test plants as compared with that of the untreated plants was determined visually and scored on a scale of 0 to 100 percent where 0 corresponds to no injury and 100 corresponds to complete kill.

[2] = system: blackgrass (Alopecurus myosuroides); assay: Postemergence herbicidal activity; conditions: scored after 2 weeks, 0 no injury, 100 complete kill
Protocol: as §1

[3] = system: chickweed (Stellaria media); assay: Postemergence herbicidal activity; conditions: scored after 2 weeks, 0 no injury, 100 complete kill
Protocol: as §1

[4] = system: cocklebur (Xanthium strumarium); assay: Postemergence herbicidal activity; conditions: scored after 2 weeks, 0 no injury, 100 complete kill
Protocol: as §1

[5] = system: giant foxtail (Setaria faberi); assay: Postemergence herbicidal activity; conditions: scored after 2 weeks, 0 no injury, 100 complete kill
Protocol: as §1

[6] = system: lambsquarters (Chenopodium album); assay: Postemergence herbicidal activity; conditions: scored after 2 weeks, 0 no injury, 100 complete kill
Protocol: as §1

[7] = system: pigweed (Amaranthus retroflexus); assay: Postemergence herbicidal activity; conditions: scored after 2 weeks, 0 no injury, 100 complete kill
Protocol: as §1

[8] = system: velvetleaf (Abutilion theophrasti); assay: Postemergence herbicidal activity; conditions: scored after 2 weeks, 0 no injury, 100 complete kill
Protocol: as §1

[9] = system: viola (Viola tricolor); assay: Postemergence herbicidal activity; conditions: scored after 2 weeks, 0 no injury, 100 complete kill
Protocol: as §1

[10] = system: wild buckwheat (Polygonum convolvulus); assay: Postemergence herbicidal activity; conditions: scored after 2 weeks, 0 no injury, 100 complete kill
Protocol: as §1

[11] = system: wild oats (Avena fatua); assay: Postemergence herbicidal activity; conditions: scored after 2 weeks, 0 no injury, 100 complete kill
Protocol: as §1

[12] = system: Rox orange sorghum (Sorghum bicolor); assay: Preemergence herbicidal activity; conditions: scored after 3 weeks, 0 no injury, 100 complete kill or no germination
Protocol: (§2) The soil matrix was contained in plastic pots with a surface area of 161 square centimeters. When required to ensure good germination and healthy plants, a fungicide treatment and/or other chemical or physical treatment was applied. A weighed amount, determined by the highest rate to be tested, of each test compound was placed in a 20 mL glass vial and was dissolved in 8 mL of a 97:3 v/v (volume/volume) mixture of acetone and dimethyl sulfoxide to obtain concentrated stock solutions. […] The stock solutions obtained were diluted with a 99.9:0.1 mixture of water and Tween® 155 surfactant (ethoxylated sorbitan fatty acid ester) to obtain application solutions of known concentration. The solutions containing the highest concentration to be tested were prepared by diluting 4 mL aliquots of the stock solution with 8.5 mL of the mixture and lower concentrations were prepared by dilution of appropriate smaller portions of the stock solution. A 2.5 mL aliquot of each solution of known concentration was sprayed evenly onto the soil of each seeded pot using a Cornwall 5.0 mL glass syringe fitted with a TeeJet TN-3 hollow cone nozzle to obtain thorough coverage of the soil in each pot. Control pots were sprayed in the same manner with the aqueous mixture. A highest application rate of 4.48 kg/ha is achieved when 50 mg of test compound is employed. The treated pots and control pots were placed in a greenhouse with an approximately 15 hr photoperiod which was maintained at about 23-29° C. during the day and 22-28° C. during the night. Nutrients and water were added on a regular basis and supplemental lighting was provided with overhead metal halide 1000 Watt lamps as necessary. The water was added by top-irrigation. After 3 weeks the condition of the test plants that germinated and grew as compared with that of the untreated plants that germinated and grew was determined visually and scored on a scale of 0 to 100 percent where 0 corresponds to no injury and 100 corresponds to complete kill or no germination.

[13] = system: barnyardgrass (Echinochloa crus-galli); assay: Preemergence herbicidal activity; conditions: scored after 3 weeks, 0 no injury, 100 complete kill or no germination
Protocol: as §2

[14] = system: blackgrass (Alopecurus myosuroides); assay: Preemergence herbicidal activity; conditions: scored after 3 weeks, 0 no injury, 100 complete kill or no germination
Protocol: as §2

[15] = system: cocklebur (Xanthium strumarium); assay: Preemergence herbicidal activity; conditions: scored after 3 weeks, 0 no injury, 100 complete kill or no germination
Protocol: as §2

[16] = system: crabgrass (Digitaria sanguinalis); assay: Preemergence herbicidal activity; conditions: scored after 3 weeks, 0 no injury, 100 complete kill or no germination
Protocol: as §2

[17] = system: giant foxtail (Setaria faberi); assay: Preemergence herbicidal activity; conditions: scored after 3 weeks, 0 no injury, 100 complete kill or no germination
Protocol: as §2

[18] = system: morningglory (Ipomoea hederacea); assay: Preemergence herbicidal activity; conditions: scored after 3 weeks, 0 no injury, 100 complete kill or no germination
Protocol: as §2

[19] = system: pigweed (Amaranthus retroflexus); assay: Preemergence herbicidal activity; conditions: scored after 3 weeks, 0 no injury, 100 complete kill or no germination
Protocol: as §2

[20] = system: velvetleaf (Abutilion theophrasti); assay: Preemergence herbicidal activity; conditions: scored after 3 weeks, 0 no injury, 100 complete kill or no germination
Protocol: as §2

[21] = system: wild oats (Avena fatua); assay: Preemergence herbicidal activity; conditions: scored after 3 weeks, 0 no injury, 100 complete kill or no germination
Protocol: as §2

[22] = system: wild poinsettia (Euphorbia heterophylla); assay: Preemergence herbicidal activity; conditions: scored after 3 weeks, 0 no injury, 100 complete kill or no germination
Protocol: as §2

[23] = system: morningglory (Ipomoea hederacea); assay: Postemergence herbicidal activity; conditions: 62.5 ppm; scored after 2 weeks; 0 no injury, 100 complete kill
Protocol: as §1

COc1cc(OC)n2nc(NS(=O)(=O)c3c(OCCF)cccc3C(F)(F)F)nc2n1 [Compound 3, N-(5,7-dimethoxy[1,2,4]triazolo[1,5-a]pyrimidin-2-yl)-2-(2-fluoroethoxy)-6-(trifluoromethyl)benzenesulfonamide]
Postemergence herbicidal activity SORBI ([1]; 3.9 ppm): 70% | Postemergence herbicidal activity ALOMY ([2]; 3.9 ppm): 95% | Postemergence herbicidal activity STEME ([3]; 3.9 ppm): 95% | Postemergence herbicidal activity XANST ([4]; 3.9 ppm): 75% | Postemergence herbicidal activity SETFA ([5]; 3.9 ppm): 98% | Postemergence herbicidal activity CHEAL ([6]; 3.9 ppm): 95% | Postemergence herbicidal activity AMARE ([7]; 3.9 ppm): 98% | Postemergence herbicidal activity ABUTH ([8]; 3.9 ppm): 80% | Postemergence herbicidal activity VIOTR ([9]; 3.9 ppm): 90% | Postemergence herbicidal activity POLCO ([10]; 3.9 ppm): 98% | Postemergence herbicidal activity AVEFA ([11]; 3.9 ppm): 70% | Preemergence herbicidal activity SORBI ([12]; 17.5 g/Ha): 100% | Preemergence herbicidal activity ECHCG ([13]; 17.5 g/Ha): 100% | Preemergence herbicidal activity ALOMY ([14]; 17.5 g/Ha): 100% | Preemergence herbicidal activity XANST ([15]; 17.5 g/Ha): 100% | Preemergence herbicidal activity DIGSA ([16]; 17.5 g/Ha): 100% | Preemergence herbicidal activity SETFA ([17]; 17.5 g/Ha): 100% | Preemergence herbicidal activity IPOHE ([18]; 17.5 g/Ha): 98% | Preemergence herbicidal activity AMARE ([19]; 17.5 g/Ha): 100% | Preemergence herbicidal activity ABUTH ([20]; 17.5 g/Ha): 100% | Preemergence herbicidal activity AVEFA ([21]; 17.5 g/Ha): 95% | Preemergence herbicidal activity EPHHL ([22]; 17.5 g/Ha): 90%

COc1cc(OC)n2nc(NS(=O)(=O)c3c(OC)cccc3OC)nc2n1 [Compound 2]
Postemergence herbicidal activity SORBI ([1]; 15.6 ppm): 100% | Postemergence herbicidal activity ALOMY ([2]; 15.6 ppm): 98% | Postemergence herbicidal activity STEME ([3]; 15.6 ppm): 98% | Postemergence herbicidal activity XANST ([4]; 15.6 ppm): 70% | Postemergence herbicidal activity SETFA ([5]; 15.6 ppm): 98% | Postemergence herbicidal activity CHEAL ([6]; 15.6 ppm): 90% | Postemergence herbicidal activity AMARE ([7]; 15.6 ppm): 95% | Postemergence herbicidal activity ABUTH ([8]; 15.6 ppm): 95% | Postemergence herbicidal activity VIOTR ([9]; 15.6 ppm): 90% | Postemergence herbicidal activity POLCO ([10]; 15.6 ppm): 98% | Postemergence herbicidal activity AVEFA ([11]; 15.6 ppm): 98% | Preemergence herbicidal activity SORBI ([12]; 17.5 g/Ha): 95% | Preemergence herbicidal activity ECHCG ([13]; 17.5 g/Ha): 60% | Preemergence herbicidal activity ALOMY ([14]; 17.5 g/Ha): 100% | Preemergence herbicidal activity XANST ([15]; 17.5 g/Ha): 80% | Preemergence herbicidal activity DIGSA ([16]; 17.5 g/Ha): 80% | Preemergence herbicidal activity SETFA ([17]; 17.5 g/Ha): 100% | Preemergence herbicidal activity IPOHE ([18]; 17.5 g/Ha): 85% | Preemergence herbicidal activity AMARE ([19]; 17.5 g/Ha): 100% | Preemergence herbicidal activity ABUTH ([20]; 17.5 g/Ha): 75% | Preemergence herbicidal activity AVEFA ([21]; 17.5 g/Ha): 75% | Preemergence herbicidal activity EPHHL ([22]; 17.5 g/Ha): 85%

COC(=O)c1cccc(OC)c1S(=O)(=O)Nc1nc2nc(OC)cc(OC)n2n1 [Compound 7]
Postemergence herbicidal activity SORBI ([1]; 62.5 ppm): 80% | Postemergence herbicidal activity ALOMY ([2]; 62.5 ppm): 95% | Postemergence herbicidal activity STEME ([3]; 62.5 ppm): 90% | Postemergence herbicidal activity XANST ([4]; 62.5 ppm): 40% | Postemergence herbicidal activity SETFA ([5]; 62.5 ppm): 95% | Postemergence herbicidal activity IPOHE [23]: 80% | Postemergence herbicidal activity AMARE ([7]; 62.5 ppm): 95% | Postemergence herbicidal activity ABUTH ([8]; 62.5 ppm): 70% | Postemergence herbicidal activity VIOTR ([9]; 62.5 ppm): 80% | Postemergence herbicidal activity POLCO ([10]; 62.5 ppm): 85% | Postemergence herbicidal activity AVEFA ([11]; 62.5 ppm): 90% | Preemergence herbicidal activity SORBI ([12]; 70 g/Ha): 95% | Preemergence herbicidal activity ECHCG ([13]; 70 g/Ha): 20% | Preemergence herbicidal activity ALOMY ([14]; 70 g/Ha): 100% | Preemergence herbicidal activity XANST ([15]; 70 g/Ha): 0% | Preemergence herbicidal activity DIGSA ([16]; 70 g/Ha): 40% | Preemergence herbicidal activity SETFA ([17]; 70 g/Ha): 100% | Preemergence herbicidal activity IPOHE ([18]; 70 g/Ha): 10% | Preemergence herbicidal activity AMARE ([19]; 70 g/Ha): 100% | Preemergence herbicidal activity ABUTH ([20]; 70 g/Ha): 0% | Preemergence herbicidal activity AVEFA ([21]; 70 g/Ha): 70% | Preemergence herbicidal activity EPHHL ([22]; 70 g/Ha): 20%

COc1cc(OC)n2nc(NS(=O)(=O)c3cc(Cl)ccc3OC)nc2n1 [Compound 5]
Postemergence herbicidal activity SORBI ([1]; 62.5 ppm): 100% | Postemergence herbicidal activity ALOMY ([2]; 62.5 ppm): 95% | Postemergence herbicidal activity STEME ([3]; 62.5 ppm): 98% | Postemergence herbicidal activity XANST ([4]; 62.5 ppm): 100% | Postemergence herbicidal activity SETFA ([5]; 62.5 ppm): 98% | Postemergence herbicidal activity CHEAL ([6]; 62.5 ppm): 95% | Postemergence herbicidal activity IPOHE [23]: 80% | Postemergence herbicidal activity AMARE ([7]; 62.5 ppm): 100% | Postemergence herbicidal activity ABUTH ([8]; 62.5 ppm): 98% | Postemergence herbicidal activity VIOTR ([9]; 62.5 ppm): 90% | Postemergence herbicidal activity POLCO ([10]; 62.5 ppm): 98% | Postemergence herbicidal activity AVEFA ([11]; 62.5 ppm): 99% | Preemergence herbicidal activity SORBI ([12]; 70 g/Ha): 95% | Preemergence herbicidal activity ECHCG ([13]; 70 g/Ha): 98% | Preemergence herbicidal activity ALOMY ([14]; 70 g/Ha): 100% | Preemergence herbicidal activity XANST ([15]; 70 g/Ha): 85% | Preemergence herbicidal activity DIGSA ([16]; 70 g/Ha): 99% | Preemergence herbicidal activity SETFA ([17]; 70 g/Ha): 98% | Preemergence herbicidal activity IPOHE ([18]; 70 g/Ha): 75% | Preemergence herbicidal activity AMARE ([19]; 70 g/Ha): 99% | Preemergence herbicidal activity ABUTH ([20]; 70 g/Ha): 95% | Preemergence herbicidal activity AVEFA ([21]; 70 g/Ha): 99% | Preemergence herbicidal activity EPHHL ([22]; 70 g/Ha): 90%
